Results published in patent US10800725B2, “Arylpropionyl-triketone antibacterial agents” (priority 2010, dated 2020).
In brackets after ≈: the same amount, converted by molar mass.

What was measured:
[1] = system: Mycobacterium tuberculosis H37Rv; test: MIC, microplate Alamar Blue assay; conditions: read-out: MIC M. tuberculosis H37Rv
[2] = biological target: S. aureus RNA polymerase core enzyme + σA (Staphylococcus aureus (strain NCTC 8325 / PS 47), UniProt P47768+Q2G0N5); test: Fluorescence-detected RNA polymerase assay, S. aureus RNAP; type: biochemical
Procedure: (§1) Fluorescence-detected RNA polymerase assays with E. coli RNA polymerase were performed by a modification of the procedure of Kuhlman et al., 2004 [Kuhlman, P., Duff, H. & Galant, A. (2004) A fluorescence-based assay for multisubunit DNA-dependent RNA polymerases. Anal. Biochem. 324, 183-190]. Reaction mixtures contained (20 μl): 0-100 nM test compound, 75 nM E. coli RNA polymerase σ^70 holoenzyme, 20 nM 384 bp DNA fragment containing the bacteriophage T4 N25 promoter, 100 μM ATP, 100 μM GTP, 100 μM UTP, 100 μM CTP, 50 mM Tris-HCl, pH 8.0, 100 mM KCl, 10 mM MgCl2, 1 mM DTT, 10 μg/ml bovine serum albumin, and 5.5% glycerol. Reaction components other than DNA and NTPs were pre-incubated for 10 min at 37° C. Reactions were carried out by addition of DNA and incubation for 5 min at 37° C., followed by addition of NTPs and incubation for 60 min at 37° C. DNA was removed by addition of 1 μl 5 mM CaCl2 and 2 U DNaseI (Ambion, Inc.), followed by incubation for 90 min at 37° C. RNA was quantified by addition of 100 μl RiboGreen RNA Quantitation Reagent (Invitrogen, Inc.; 1:500 dilution in Tris-HCl, pH 8.0, 1 mM EDTA), followed by incubation for 10 min at 25° C., followed by measurement of fluorescence intensity [excitation wavelength=485 nm and emission wavelength=535 nm; QuantaMaster QM1 spectrofluorometer (PTI, Inc.)]. IC50 is defined as the concentration of inhibitor resulting in 50% inhibition of RNA polymerase activity.
(§2) Fluorescence-detected RNA polymerase assays with S. aureus RNA polymerase were performed as in Example 21.1, using reaction mixtures containing (20 μl): 0-100 nM test compound, 75 nM S. aureus RNA polymerase core enzyme, 300 nM S. aureus σ^A, 20 nM 384 bp DNA fragment containing the bacteriophage T4 N25 promoter, 100 μM ATP, 100 μM GTP, 100 μM UTP, 100 μM CTP, 40 mM Tris-HCl, pH 8.0, 80 mM NaCl, 5 mM MgCl2, 2.5 mM DTT, and 12.7% glycerol. IC50 is defined as the concentration of inhibitor resulting in 50% inhibition of RNA polymerase activity.

[3] = system: Moraxella catarrhalis ATCC 25238; test: MIC, spiral gradient endpoint assay (GC II agar, 5% CO2); conditions: ATCC25238, read-out: MIC M. catarrhalis 25238
[4] = system: Enterococcus faecalis ATCC 19433; test: MIC, spiral gradient endpoint assay; conditions: ATCC19433, read-out: MIC E. faecalis 19433
[5] = system: Staphylococcus aureus ATCC 12600; test: MIC, spiral gradient endpoint assay; conditions: ATCC12600, read-out: MIC S. aureus 12600
[6] = system: Streptococcus pyogenes ATCC 12344; test: MIC, spiral gradient endpoint assay (GC II agar, 5% CO2); conditions: ATCC12344, read-out: MIC S. pyogenes 12344
[7] = biological target: E. coli RNA polymerase σ70 holoenzyme (Escherichia coli (strain K12), UniProt P0A8T7+P0A8V2); test: Fluorescence-detected RNA polymerase assay, E. coli RNAP; type: biochemical
Procedure: as §1

[8] = biological target: M. tuberculosis RNA polymerase core enzyme + σA (Mycobacterium tuberculosis (strain ATCC 25618 / H37Rv), UniProt P9WGY7+P9WGY9); test: Fluorescence-detected RNA polymerase assay, M. tuberculosis RNAP; type: biochemical
Procedure: as §1
as §2, with “M. tuberculosis” for “S. aureus”

[9] = system: Staphylococcus aureus BAA-1717 MRSA (USA300); test: MIC, spiral gradient endpoint assay; conditions: read-out: MIC S. aureus MRSA 1717
[10] = system: Staphylococcus aureus ATCC 13709 MSSA; test: MIC, spiral gradient endpoint assay; conditions: read-out: MIC S. aureus 13709
[11] = system: Streptococcus pneumoniae ATCC 49619; test: MIC, spiral gradient endpoint assay (GC II agar, 5% CO2); conditions: ATCC49619, read-out: MIC S. pneumoniae 49619
[12] = system: Staphylococcus aureus BAA-1707 MRSA (MW2); test: MIC, spiral gradient endpoint assay; conditions: read-out: MIC S. aureus MRSA 1707
[13] = system: Escherichia coli D21f2tolC; test: MIC, spiral gradient endpoint assay; conditions: read-out: MIC E. coli D21f2tolC
[14] = system: Enterococcus faecium ATCC 19434; test: MIC, spiral gradient endpoint assay; conditions: ATCC19434, read-out: MIC E. faecium 19434
[15] = system: Francisella tularensis SCHU4; test: microbe, parasite or virus in culture; type: cell-based; conditions: SCHU4, read-out: MIC F. tularensis SCHU4
[16] = system: Bacillus anthracis Vollum-1b; test: microbe, parasite or virus in culture; type: cell-based; conditions: VOLLUM1B, read-out: MIC B. anthracis Vollum-1b

| Structure (SMILES) | MIC [1] | IC50 [2] | MIC [3] | MIC [4] | MIC [5] | MIC [6] | IC50 [7] | IC50 [8] | MIC [9] | MIC [10] | MIC [11] | MIC [12] | MIC [13] | MIC [14] | MIC [15] | MIC [16] |
| --- | --- | --- | --- | --- | --- | --- | --- | --- | --- | --- | --- | --- | --- | --- | --- | --- |
| CCC1=C(O)C(CC)(CC)C(=O)C(C(=O)CCc2ccccc2)=C1O [Compound 16, 3,5-dihydroxy-2-(3-phenylpropanoyl)-4,6,6-triethylcyclohexa-2,4-dienone] | > 50 µg/mL | > 400 µM | > 40 µg/mL | 19 µg/mL (≈ 55.5 µM) | 4 µg/mL (≈ 11.7 µM) | 19 µg/mL (≈ 55.5 µM) | > 400 µM | > 400 µM | 8 µg/mL (≈ 23.4 µM) | 6 µg/mL (≈ 17.5 µM) | 15 µg/mL (≈ 43.8 µM) | 6 µg/mL (≈ 17.5 µM) | 5 µg/mL (≈ 14.6 µM) | 5 µg/mL (≈ 14.6 µM) | – | – |
| CC(C)CCC1=C(O)C(CCC(C)C)(CCC(C)C)C(=O)C(C(=O)CCc2ccccc2)=C1O [Compound 15, 3,5-dihydroxy-2-(3-phenylpropanoyl)-4,6,6-triisopentylcyclohexa-2,4-dienone] | 50 µg/mL (≈ 107 µM) | 11 µM | 25 µg/mL (≈ 53.3 µM) | 1 µg/mL (≈ 2.13 µM) | 0.5 µg/mL (≈ 1.07 µM) | 12 µg/mL (≈ 25.6 µM) | 3.5 µM | 2.6 µM | 0.5 µg/mL (≈ 1.07 µM) | 0.5 µg/mL (≈ 1.07 µM) | 12 µg/mL (≈ 25.6 µM) | 0.4 µg/mL (≈ 0.853 µM) | 4 µg/mL (≈ 8.53 µM) | 1.5 µg/mL (≈ 3.2 µM) | 0.19 µg/mL (≈ 0.405 µM) | 0.098 µg/mL (≈ 0.209 µM) |
| CCCCC1=C(O)C(CCCC)(CCCC)C(=O)C(C(=O)CCc2ccccc2)=C1O [Compound 18, 3,5-dihydroxy-2-(3-phenylpropanoyl)-4,6,6-tributylcyclohexa-2,4-dienone] | 50 µg/mL (≈ 117 µM) | 80 µM | 24 µg/mL (≈ 56.3 µM) | 11 µg/mL (≈ 25.8 µM) | < 0.5 µg/mL | 12 µg/mL (≈ 28.1 µM) | 33 µM | 22 µM | < 0.5 µg/mL | 0.8 µg/mL (≈ 1.88 µM) | 9.3 µg/mL (≈ 21.8 µM) | 0.8 µg/mL (≈ 1.88 µM) | 1.2 µg/mL (≈ 2.81 µM) | 0.6 µg/mL (≈ 1.41 µM) | 25 µg/mL (≈ 58.6 µM) | 0.049 µg/mL (≈ 0.115 µM) |
| CCCC1=C(O)C(CCC)(CCC)C(=O)C(C(=O)CCc2ccccc2)=C1O [Compound 17, 3,5-dihydroxy-2-(3-phenylpropanoyl)-4,6,6-tripropylcyclohexa-2,4-dienone] | > 50 µg/mL | > 400 µM | > 40 µg/mL | 3 µg/mL (≈ 7.8 µM) | 1 µg/mL (≈ 2.6 µM) | 19 µg/mL (≈ 49.4 µM) | 70 µM | 140 µM | 2 µg/mL (≈ 5.2 µM) | 2 µg/mL (≈ 5.2 µM) | 15 µg/mL (≈ 39 µM) | 2 µg/mL (≈ 5.2 µM) | 1.3 µg/mL (≈ 3.38 µM) | 1 µg/mL (≈ 2.6 µM) | – | – |
| CCCCCC1=C(O)C(CCCCC)(CCCCC)C(=O)C(C(=O)CCc2ccccc2)=C1O [Compound 19, 3,5-dihydroxy-2-(3-phenylpropanoyl)-4,6,6-tripentylcyclohexa-2,4-dienone] | 50 µg/mL (≈ 107 µM) | 13 µM | 19 µg/mL (≈ 40.5 µM) | 9 µg/mL (≈ 19.2 µM) | 2 µg/mL (≈ 4.27 µM) | 15 µg/mL (≈ 32 µM) | 7.3 µM | 4.1 µM | 1 µg/mL (≈ 2.13 µM) | 3 µg/mL (≈ 6.4 µM) | 15 µg/mL (≈ 32 µM) | 0.7 µg/mL (≈ 1.49 µM) | 14 µg/mL (≈ 29.9 µM) | 2 µg/mL (≈ 4.27 µM) | 0.39 µg/mL (≈ 0.832 µM) | 0.049 µg/mL (≈ 0.105 µM) |
| CC(C)CCC1=C(O)C(CCC(C)C)(CCC(C)C)C(=O)C(C(=O)C(C)Cc2ccccc2)=C1O (centres unmarked) [Compound 20, 3,5-dihydroxy-2-(2-methyl-3-phenylpropanoyl)-4,6,6-triisopentylcyclohexa-2,4-dienone] | 50 µg/mL (≈ 104 µM) | 13 µM | 24 µg/mL (≈ 49.7 µM) | 0.7 µg/mL (≈ 1.45 µM) | 0.4 µg/mL (≈ 0.829 µM) | 15 µg/mL (≈ 31.1 µM) | 12 µM | 7.3 µM | 0.7 µg/mL (≈ 1.45 µM) | 0.7 µg/mL (≈ 1.45 µM) | 19 µg/mL (≈ 39.4 µM) | 0.7 µg/mL (≈ 1.45 µM) | 6 µg/mL (≈ 12.4 µM) | 0.6 µg/mL (≈ 1.24 µM) | 0.78 µg/mL (≈ 1.62 µM) | 0.098 µg/mL (≈ 0.203 µM) |
